Values of other authors, collected in US11406678B2, “Simmondsin formulation” (priority 2016, dated 2022).

Conditions: rats, 25 mg or 50 mg simmondsin per kg body weight

Structure (SMILES): CO[C@H]1[C@@H](OC)C[C@@H](O[C@@H]2O[C@H](CO)[C@@H](O)[C@H](O)[C@H]2O)/C(=C\C#N)[C@@H]1O [simmondsin]
- weight loss: no effect on the weight loss
